Data published in patent US8354431B2, “Aryl carboxylic acid cyclohexyl amide derivatives” (Novartis AG, priority 2007, dated 2013).

Assays:
hCCR2b = target: T1, hCCR2b (Homo sapiens, UniProt P41597); assay: CCR2 membrane binding assay (SPA, [125I] MCP-1); conditions: table does not name the assay; b437 says 'in these assays'
T1 construct: expressed in transfected cells; host or cells: CHO-dukX
T1 sequence (P41597 1-360 isoform P41597-2): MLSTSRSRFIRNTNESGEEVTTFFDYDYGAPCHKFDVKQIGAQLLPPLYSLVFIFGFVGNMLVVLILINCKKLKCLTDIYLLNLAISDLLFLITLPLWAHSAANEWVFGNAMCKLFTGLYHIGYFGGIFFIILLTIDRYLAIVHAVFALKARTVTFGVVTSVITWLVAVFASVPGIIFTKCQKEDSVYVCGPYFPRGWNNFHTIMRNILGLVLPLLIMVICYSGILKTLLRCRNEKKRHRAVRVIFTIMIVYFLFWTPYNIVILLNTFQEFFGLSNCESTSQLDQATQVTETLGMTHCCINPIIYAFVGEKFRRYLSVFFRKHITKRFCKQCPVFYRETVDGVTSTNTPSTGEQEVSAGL
Method: Transfected CHO-dukX cells stably expressing the hCCR2b gene are grown in MEM alpha medium to a confluency of between 70 and 80%. After discarding the medium, 30 ml ice-cold physiological buffer solution containing 1 mM EDTA are added and the cells removed from the plate using a scraper. The cell suspension is centrifuged at 800 g for 10′ at 4° C. and the cell pellet resuspended in buffer. Cell lysis is done using a Polytron PTI300D instrument at 28 000 RPM for 2 times 30 seconds on ice. Membranes are collected by centrifugation at 42 000 g for 20 minutes at 4° C. and subjected to a second round of lysis (Polytron, 28 000 RPM, 2×30 seconds on ice). Following centrifugation at 42 000 g for 20 minutes at 4° C. the membranes are resuspended in buffer at a protein concentration of 2 mg/ml and stored at −80° C. Ten millimolar stock solutions of test compounds in 100% DMSO are prepared. Test compounds are further diluted in buffer to yield the four-fold concentrated solutions for the tests that assayed a range of 10^−10 to 10^−5 M. The SPA assay is performed in a final volume of 200 μl per well in 96 well plates. The components are added per well in the following order: • 50 μl Buffer (+/−test compound) • 50 μl Wheat germ agglutinin-SPA beads (1.25 mg/well) in buffer • 50 μl CCR2B membrane suspension diluted with buffer to 0.04 mg/ml (2 μg/well), alternatively 50,000 cells per well • 50 μl [^125I] MCP-1 in buffer (60 pM final concentration, 2.5 μCi/plate)
After addition of all components the plate is sealed and incubated for 90 minutes at room temperature with constant shaking. Following incubation the plate is centrifuged at 1000 RPM in a Sorvall RC3B centrifuge for 4 minutes at room temperature and counted for 3 minutes per well in a TOP COUNT instrument (Packard). The quench-corrected counts are used for the analysis of radioligand binding.

Human CCR5 = target: T2, Human CCR5 (Homo sapiens, UniProt P51681); assay: CCR5 membrane binding assay ([I-125]MIP-1α); conditions: table does not name the assay; b437 says 'in these assays'
T2 construct: expressed in transfected cells; host or cells: CHO K1
Method: Human CCR5 is used to generate stable transfectants in CHO K1 cells. Membranes prepared from these CCR5 transfectants are used in a radioligand binding assay using 125-1-MIP-1α as a ligand and the compounds of formula I are tested for inhibitory activity. The data are reported as IC50, i.e. the concentration of compound required to achieve 50% inhibition of [I-125]MIP-1α binding. In this assay, compounds of formula I have an IC50 between 0.004 and 10 μM.

T2 sequence (P51681 whole entry): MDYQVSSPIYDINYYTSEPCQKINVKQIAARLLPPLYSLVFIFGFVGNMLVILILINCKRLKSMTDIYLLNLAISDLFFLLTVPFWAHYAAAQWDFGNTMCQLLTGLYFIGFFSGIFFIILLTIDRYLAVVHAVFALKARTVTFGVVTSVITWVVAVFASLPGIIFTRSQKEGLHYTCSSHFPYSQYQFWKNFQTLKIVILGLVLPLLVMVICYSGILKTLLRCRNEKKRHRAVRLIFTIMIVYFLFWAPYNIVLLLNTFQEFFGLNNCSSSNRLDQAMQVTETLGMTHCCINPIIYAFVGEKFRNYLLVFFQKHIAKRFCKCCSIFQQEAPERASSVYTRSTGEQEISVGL

SMILES | IC50 (hCCR2b) [nM] | IC50 (Human CCR5) [nM]
COCC(C)Oc1ccc2c(COc3cccc4[nH]c(C(=O)N[C@H]5CC[C@](O)(CCN6CC[C@H](O)[C@@H](C)C6)CC5)cc34)coc2c1 (mixture of isomers) [Example 17, 4-[6-((RS)-2-Methoxy-1-methyl-ethoxy)-benzofuran-3-ylmethoxy]-1H-indole-2-carboxylic acid {4-hydroxy-4-[2-((3S,4S)-4-hydroxy-3-methyl-piperidin-1-yl)-ethyl]-cyclohexyl}-amide] | 0.8 | –
C[C@H]1CN(CC[C@]2(O)CC[C@@H](NC(=O)c3cc4c(OCC5CCC5)cccc4[nH]3)CC2)CC[C@@H]1O [Example 1, 4-Cyclobutylmethoxy-1H-indole-2-carboxylic acid {4-hydroxy-4-[2-((3S,4S)-4-hydroxy-3-methyl-piperidin-1-yl)-ethyl]-cyclohexyl}-amide] | 12 | 13.2
C[C@H]1CN(CC[C@]2(O)CC[C@@H](NC(=O)c3cc4c(OCc5ccoc5)cccc4[nH]3)CC2)CC[C@@H]1O [Example 3, 4-(Furan-3-ylmethoxy)-1H-indole-2-carboxylic acid {4-hydroxy-4-[2-((3S,4S)-4-hydroxy-3-methyl-piperidin-1-yl)-ethyl]-cyclohexyl}-amide] | – | 13.8
C[C@H]1CN(CC[C@]2(O)CC[C@@H](NC(=O)c3cc4c(OCc5coc6c5C(=O)CCC6)cccc4[nH]3)CC2)CC[C@@H]1O [Example 6, 4-(4-Oxo-4,5,6,7-tetrahydro-benzofuran-3-ylmethoxy)-1H-indole-2-carboxylic acid {4-hydroxy-4-[2-((3S,4S)-4-hydroxy-3-methyl-piperidin-1-yl)-ethyl]-cyclohexyl}-amide] | 24.3 | 27
C[C@H]1CN(CC[C@]2(O)CC[C@@H](NC(=O)c3cc4c(OCc5coc6c5C(=O)CC(C)(C)C6)cccc4[nH]3)CC2)CC[C@@H]1O [Example 7, 4-(6,6-Dimethyl-4-oxo-4,5,6,7-tetrahydro-benzofuran-3-ylmethoxy)-1H-indole-2-carboxylic acid {4-hydroxy-4-[2-((3S,4S)-4-hydroxy-3-methyl-piperidin-1-yl)-ethyl]-cyclohexyl}-amide] | 13.8 | 11.9
C[C@H]1CN(CC[C@]2(O)CC[C@@H](NC(=O)c3cc4c(OC[C@@H]5COc6ccccc65)cccc4[nH]3)CC2)CC[C@@H]1O [Example 8, 4-[(S)-1-(2,3-Dihydro-benzofuran-3-yl)methoxy]-1H-indole-2-carboxylic acid {4-hydroxy-4-[2-((3S,4S)-4-hydroxy-3-methyl-piperidin-1-yl)-ethyl]-cyclohexyl}-amide] | 10.8 | 58.5
COc1cccc2occ(COc3cccc4[nH]c(C(=O)N[C@H]5CC[C@](O)(CCN6CC[C@H](O)[C@@H](C)C6)CC5)cc34)c12 [Example 10, 4-(4-Methoxy-benzofuran-3-ylmethoxy)-1H-indole-2-carboxylic acid {4-hydroxy-4-[2-((3S,4S)-4-hydroxy-3-methyl-piperidin-1-yl)-ethyl]-cyclohexyl}-amide] | 1.5 | 10.6
C[C@H]1CN(CC[C@]2(O)CC[C@@H](NC(=O)c3cc4c(OCc5coc6cc(F)cc(F)c56)cccc4[nH]3)CC2)CC[C@@H]1O [Example 11, 4-(4,6-Difluoro-benzofuran-3-ylmethoxy)-1H-indole-2-carboxylic acid {4-hydroxy-4-[2-((3S,4S)-4-hydroxy-3-methyl-piperidin-1-yl)-ethyl]-cyclohexyl}-amide] | 2.3 | –
C[C@H]1CN(CC[C@]2(O)CC[C@@H](NC(=O)c3cc4c(OCc5coc6ccc(Cl)cc56)cccc4[nH]3)CC2)CC[C@@H]1O [Example 12, 4-(5-Chloro-benzofuran-3-ylmethoxy)-1H-indole-2-carboxylic acid {4-hydroxy-4-[2-((3S,4S)-4-hydroxy-3-methyl-piperidin-1-yl)-ethyl]-cyclohexyl}-amide] | 0.2 | 0.5
COc1ccc2c(COc3cccc4[nH]c(C(=O)N[C@H]5CC[C@](O)(CCN6CC[C@H](O)[C@@H](C)C6)CC5)cc34)coc2c1 [Example 13, 4-(6-Methoxy-benzofuran-3-ylmethoxy)-1H-indole-2-carboxylic acid {4-hydroxy-4-[2-((3S,4S)-4-hydroxy-3-methyl-piperidin-1-yl)-ethyl]-cyclohexyl}-amide] | 2.7 | 5.8
COCCCOc1ccc2c(COc3cccc4[nH]c(C(=O)N[C@H]5CC[C@](O)(CCN6CC[C@H](O)[C@@H](C)C6)CC5)cc34)coc2c1 [Example 19, 4-[6-(3-Methoxy-propoxy)-benzofuran-3-ylmethoxy]-1H-indole-2-carboxylic acid {4-hydroxy-4-[2-((3S,4S)-4-hydroxy-3-methyl-piperidin-1-yl)-ethyl]-cyclohexyl}-amide] | 0.7 | –
CCOCCCOc1ccc2c(COc3cccc4[nH]c(C(=O)N[C@H]5CC[C@](O)(CCN6CC[C@H](O)[C@@H](C)C6)CC5)cc34)coc2c1 [Example 20, 4-[6-(3-Ethoxy-propoxy)-benzofuran-3-ylmethoxy]-1H-indole-2-carboxylic acid {4-hydroxy-4-[2-((3S,4S)-4-hydroxy-3-methyl-piperidin-1-yl)-ethyl]-cyclohexyl}-amide] | 0.9 | 3.2
C[C@H]1CN(CC[C@]2(O)CC[C@@H](NC(=O)c3cc4c(OCc5coc6cc(O[C@H]7CCOC7)ccc56)cccc4[nH]3)CC2)CC[C@@H]1O [Example 21, 4-{6-[(S)-(Tetrahydro-furan-3-yl)oxy]-benzofuran-3-ylmethoxy}-1H-indole-2-carboxylic acid {4-hydroxy-4-[2-((3S,4S)-4-hydroxy-3-methyl-piperidin-1-yl)-ethyl]-cyclohexyl}-amideamide] | 1.6 | 9
C[C@H]1CN(CC[C@]2(O)CC[C@@H](NC(=O)c3cc4c(OCc5coc6cc(F)ccc56)cccc4[nH]3)CC2)CC[C@@H]1O [Example 22, 4-(6-Fluoro-benzofuran-3-ylmethoxy)-1H-indole-2-carboxylic acid {4-hydroxy-4-[2-((3S,4S)-4-hydroxy-3-methyl-piperidin-1-yl)-ethyl]-cyclohexyl}-amide] | 7.4 | –
COc1cccc2c(COc3cccc4[nH]c(C(=O)N[C@H]5CC[C@](O)(CCN6CC[C@H](O)[C@@H](C)C6)CC5)cc34)coc12 [Example 23, 4-(7-Methoxy-benzofuran-3-ylmethoxy)-1H-indole-2-carboxylic acid {4-hydroxy-4-[2-((3S,4S)-4-hydroxy-3-methyl-piperidin-1-yl)-ethyl]-cyclohexyl}-amide] | 12.5 | 12.1
